Experimental data reported in patent US8937167B2 (Washington University, priority 2009, dated 2015).
“Also recorded” adds a separate entry of the source. Where two headings read alike, the source gives them in different places.

Assays:
UTI89 [1] = assay: Ex vivo gentamicin protection assay of infected mouse bladders (luminal vs intracellular bacteria); type: in vivo, E. coli (UPEC); host mouse; details: 1 hour post-infection, bacteria inoculated in presence of mannoside
Excerpt: Based on the extensive elucidation of the UPEC pathogenic cascade, critical nodes in pathogenesis that mannosides would target and thereby have powerful and potent therapeutic ramifications were identified. The first step in the UPEC pathway involves FimH-mediated colonization of the bladder epithelium via the recognition of mannose receptors. Bacterial invasion into superficial bladder umbrella cells can then ensue. […] To test this, a well-established gentamicin protection assay that allows the determination of the luminally bound fraction versus the intracellular fraction was utilized (FIG. 10). […] This may be due to contamination from bacteria in the urine or bacteria that are non-specifically associated with the epithelium. In any case, blocking invasion blocks the ability of the bacteria to rapidly expand in numbers. This is due to the ability of the mannosides to block the IBC mechanism.
Gentamicin protection assay. To enumerate bacteria present in the intracellular versus extracellular compartments, bladders were aseptically harvested at 6 hpi. The bladders were then bisected twice and washed three times in 500 μl of PBS each. The wash fractions were pooled, lightly spun at 500 rpm for 5 min to pellet exfoliated bladder cells, serially diluted, and plated onto LB agar to obtain the luminal fraction. The bladders were treated with 100 μg of gentamicin/ml for 90 min at 37° C. After treatment, the bladders were washed twice with PBS to eliminate residual gentamicin, homogenized in 1 ml of PBS, serially diluted, and plated onto LB agar to enumberate the CFUs in the intracellular fraction.
To enumerate bacteria present in the intracellular versus extracellular compartments, bladders were aseptically harvested at 6 hpi. The bladders were then bisected twice and washed three times in 500 μl of PBS each. The wash fractions were pooled, lightly spun at 500 rpm for 5 min to pellet exfoliated bladder cells, serially diluted, and plated onto LB agar to obtain the luminal fraction. The bladders were treated with 100 μg of gentamicin/ml for 90 min at 37° C. […]

FimH [2] = molecular target: FimH (Escherichia coli, UniProt Q1R2J4); details: for HAI Titer EC>50: Table 21;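 as to all read-outs here: hemagglutination inhibition of guinea pig erythrocytes agglutinated by type 1 piliated uropathogenic E. coli via FimH mannose binding, quantified through serial dilutions of compound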
Protocol: In some embodiments, activity of the compound is measured using hemmagglutination titer of guinea pig red blood cells. Hemagglutination of guinea pig red blood cells by type1 piliated UPEC is dependent upon FimH mannose binding ability and serial dilutions allow a quantitative analysis.
Biological activity against FimH was evaluated using a guinea pig red blood cell-based hemagglutination (HA) assay (ref) in which the concentration of the mannoside on reducing agglutination by 50% was used as the primary endpoint (50% HA titer).
Hemagglutination of guinea pig red blood cells by type1 piliated UPEC is dependent upon FimH mannose binding ability. Serial dilutions allow a quantitative analysis using this assay.
Hemagglutination assays for mannose-sensitive agglutination of guinea pig red blood cells were performed as previously described.

UTI89 [3] = assay: Mouse UTI model, bladder bacterial titers (CFU); type: in vivo, E. coli (UPEC); host C3H/HeN mouse; details: 6 hours post-infection
Protocol: For mannoside treatment, bacteria were incubated with 1 mM ZFH56 prior to inoculation. Every 24 h for 3 days, mice were transurethrally inoculated with 1 mM ZFH56. For antibiotic treatment, mice were inoculated with UTI89 and immediately given antibiotics in the drinking water for 3 days. Antibiotics used were trimethoprim-sulfamethoxazole (SXT) at […], respectively. For dual treatment, bacteria were incubated with 1 mM ZFH56 prior to inoculation. Every 24 h for 3 days, mice were transurethrally inoculated with 1 mM ZFH56. Additionally, mice were immediately given antibiotics in the drinking water for 3 days as in the antibiotic only treatment. Urine was collected every day for 13 days. At 2 weeks, mice were sacrificed and bladders were titered.
UTI89 biofilm was grown in LB+/− mannoside for 24 h at 22° C. in PVC plates and quantitated using crystal violet. UTI89 biofilm for confocal microscopy was grown in LB for 24 h at 22° C. on PVC coverslips. Mannoside was then added and biofilm was grown for an additional 16 h. Coverslips were then washed in PBS, fixed in 2% paraformaldehyde and stained with SYTO9 prior to confocal microscopy. For all animal experiments UTI89 or PBC-1 was grown 2×24 h statically in LB at 37° C. and inoculated at a dose of 1×10^7 bacteria in 50 μl. All mice used were female C3H/HeN (Jackson). For the pretreatment studies, bacteria were incubated with mannoside for 20 min prior to inoculation into the mouse. […] For CFU counts, bladders were harvested at 6 hpi and placed in 1 mL PBS. Bladders were then homogenized, diluted and plated on LB. After growth at 37° C. overnight, bacterial counts were determined. LacZ staining and gentamicin protection assays were performed at 6 hpi. […] Water was changed daily with fresh antibiotics. Standard growth curve assays and hemagglutination assays were performed with TMP-SMZ. All statistical analysis performed was a two-tailed Mann-Whitney U test.
Animal infections. Bacteria were grown under type 1 pili-inducing conditions (2×24 h at 37° C. statically in LB). The bacteria were harvested and resuspended to an OD600 of 0.5 in PBS. Eight-week-old C3H/HeN (Harlan) female mice were anesthetized by inhalation of isoflurane and infected via transurethral catheterization with 50 μl of the bacterial suspension, resulting in 1-2×10^7 inoculum. At 6 hpi, mice were sacrificed by cervical dislocation under anesthesia and the bladders were immediately harvested and processed as described below. All animal studies using mice were approved by the Animal Studies Committee of Washington University (Animal Protocol Number 20100002).
Bladder tissue bacterial titer determination. Mannoside ZFH-2056 was administered either IP (5 mg/kg) or orally (100 mg/kg) 30 min prior to inoculation with UTI89. […]

UTI89 [4] = assay: Enumeration of bladder IBCs by LacZ staining in infected mice; type: in vivo, E. coli (UPEC); host C3H/HeN mouse; details: 6 hours post-infection
Protocol: After invasion, UPEC are able to rapidly replicate to form IBCs, thus dramatically expanding in numbers. After maturation of the IBC, bacteria are able to disperse from the biomass and spread to neighboring cells to expand the buildup in bacterial numbers via next generation IBC. The ability of mannosides to block IBC formation was evaluated based on LacZ staining of whole mount bladders, a protocol developed to enumerate IBCs. Whole bladder titers were also determined by quantifying colony forming units (CFUs) at 6 hours post-infection and later time points as test compounds were further developed.
(§1) Enumeration of bladder IBCs. For bacterial pretreatment experiments, mannoside was added to the bacterial suspension and incubated for 20 min. For animal pretreatment experiments, mannoside ZFH-2056 was administered either IP (5 mg/kg) or orally (100 mg/kg) 30 min prior to inoculation with UTI89. To accurately count the number of IBCs, mice were sacrificed 6 hpi and bladders were aseptically removed, bisected, splayed on silicone plates and fixed in 2% paraformaldehyde (v/v). IBCs, readily discernable as punctate violet spots, were quantified by LacZ staining of whole bladders.
as §1, with “For” for “Enumeration of bladder IBCs. For bacterial pretreatment experiments, mannoside was added to the bacterial suspension and incubated for 20 min. For”

FimH [5] = molecular target: FimH (Escherichia coli, UniProt P08191); details: previously reported, SPR; read-out: KD; cited from earlier work
UTI89 biofilm = assay: UTI89 type 1 dependent biofilm formation (inhibition/prevention) assay on PVC, crystal violet; type: cell-based, uropathogenic E. coli UTI89; details: for IC50: Escherichia coli, read-out: Biofilm Prevention IC50
Procedure, shortened: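 Prevention: UTI89 grown in LB in PVC wells at 23° C with mannoside at varying concentrations for 48 h, then crystal violet stained and quantified. Disruption: 24 h UTI89 biofilm, mannoside added, grown 16 h more, then crystal violet.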

[6] = type: in vitro ADME; details: 64800 sec, […], pH 7.4
Protocol: Materials. The assay was carried out using Multiscreen PVDF 96-well plates (Millipore, Billerica, Mass.) using the company's Transporter Receiver Plate. The lipid (dioleyoylphosphotidylcholine (DOPC):Stearic Acid (80:20, wt %) in dodecane was obtained from Avanti Polar lipids (Alabaster, Ala.). Hank's Buffered Salt Solution (HBSS), pH 7.4 was obtained from MediaTech (Manassas, Va.).
Methods. Each of the test compounds was diluted to 2.5 mM in DMSO (Sigma, St Louis, Mo.) and further diluted prior to testing to 2.5 μM in HBSS, pH 7.4. The assay was performed using a Millipore 96-well Multiscreen-IP PAMPA plate, 5 μl of the lipid suspension was directly added to the PVDF membrane of the filter plate. Immediately following the addition of the lipid to the membrane, 200 μl of HBSS solution containing the test compound was added to the donor (upper) chamber. HBSS (300 μl) is also added to the receiver plate and the filter and receiver plates assembled and incubated overnight at room temperature in a moistened sealed bag to prevent evaporation. The concentration in the receiver plate as well as an equilibrium plate, that represents a theoretical, partition-free sample, was determined by HPLC-tandem mass spectrometry. Analysis of each compound was performed in triplicate.
Analysis. Analysis of both the acceptor and equilibrium samples were performed using an AB 3200 triple quadripole mass spectrometer linked to a Shimadzu DGU-20A HPLC with a Prevail C18 column (3 μm, 2.1×10 mm) with a flow rate of 0.35 ml/min. The mobile phase used was A: 0.1% Formic Acid in water, B: 0.1% Formic Acid in methanol. The elation gradient method is described in the table. Data acquisition and peak height determination was performed using Analyst v.1.4.2.
Calculations. The login of the effective permeability (LogPe) was calculated using the following equation
[formula] [formula] Where the drug concentration is the peak areas for the analyte and VD and VA is the volume of the donor and acceptor compartment respectively. The area is the surface area of the PVDF membrane (0.11 cm^2) and time is the incubation in seconds (64,800 sec). Each value is the mean of triplicates performed on the same day.

[7] = molecular target: T1, FimH lectin domain (residues 1-158 of UPEC J96 FimH) (Escherichia coli, UniProt P08191); type: binding; details: Table 21
T1 construct: made in house
Protocol: DSF measures the melting temperature change of protein when binding to small molecules. Melting temperature shifts are proportional to the free energy of binding, and melting temperatures increase even as ligand concentration exceeds the Kd.
FimH lectin domain (residues 1-158 of UPEC J96 FimH, without an affinity tag) was purified as described previously. Five micrograms FimH in 5 μl HBS were mixed with HBS to yield a final volume of 50 μl containing compound at a final concentration of 100 μM and a “5×” final concentration of SYPRO Orange (sold as a “5000×” stock in DMSO and mixed with HBS to a working stock of 50× immediately before use: Life Technologies Inc.; Grand Island, N.Y.). Compounds were diluted to 100 μM from stocks in DMSO and compared to matched control wells with FimH alone plus 0.2% DMSO. 50 μl reactions were placed in 96-well clear-bottom PCR plates and subjected to a melt curve from 20-90° C. in 0.5° C. increments of 15 seconds each followed by a fluorescence read of the “HEX” channel in a Bio-Rad CFX96 thermocycler (Bio-Rad, Hercules, Calif.). Melt curves were fitted to the Boltzmann equation to determine the melting temperature (Tm) (y=A2+(A1−A2)/(1+exp((x−x0)/dx)) where x0 is the Tm) using OriginPro 8 (OriginLab, Northampton Mass.).

[8] = UTI89 inoculated in presence of pilicide

SMILES	HAI Titer EC>90 (FimH [2])	HAI Titer EC>50 (FimH [2]; ZFH/JWJ codes)	HAI Titer EC>90 (FimH [2]; Table 22, ZFH/JWJ codes)	IC50 (UTI89 biofilm)	PAMPA (LogPe) [6]	DSF Melting Temp. [7]	other results
NC(=O)c1cccc(OC2OC(CO)C(O)C(O)C2O)c1 (stereo not shown) [Compound 2ZFH98, 3-[3,4,5-trihydroxy-6-(hydroxymethyl)tetrahydropyran-2-yl]oxybenzamide]	16.000 µM	–	–	–	–	–	intracellular bacteria (UTI89 [1]): significant decrease; bladder CFUs / colonization (UTI89 [3]; 1 mM mannoside treated bacteria): significantly reduced colonization; IBCs (UTI89 [4]; 0.1 mM mannoside): significantly reduced IBCs; IBCs (UTI89 [4]; 1 mM mannoside): significantly reduced IBCs
CCCCO[C@H]1O[C@H](CO)[C@@H](O)[C@H](O)[C@@H]1O [butylmannoside, α-D-butylmannoside]	–	–	–	–	–	–	Kd (FimH [5]): 151 nM
CCCCCCCO[C@H]1O[C@H](CO)[C@@H](O)[C@H](O)[C@@H]1O [heptyl mannose]	–	–	–	–	–	–	inhibition of UPEC biofilm formation in vitro (UTI89 biofilm; 1 mM): inhibited UPEC biofilm formation; virulence / bladder bacterial load (UTI89 [3]; UTI89 incubated with 5 mM compound before inoculation): significant attenuation of virulence; also recorded: reduction of bacterial load in the bladder
CNC(=O)c1cccc(-c2ccc(OC3O[C@@H](CO)[C@@H](O)[C@H](O)[C@H]3O)c(C)c2)c1 (stereo partly drawn) [Compound 4ZFH269, N-methyl-3-[3-methyl-4-[(3R,4S,5S,6S)-3,4,5-trihydroxy-6-(hydroxymethyl)tetrahydropyran-2-yl]oxy-phenyl]benzamide]	0.062 µM	0.06 µM	0.062 µM	159 nM	−3.89	74.46 C.	–
O=C(O)[C@@H]1CSc2c(-c3cccc(C(F)(F)F)c3)c(Cc3cccc4ccccc34)cc(=O)n21 [FN075, reference compound]	–	–	–	–	–	–	bacterial load within the bladder (UTI89 [3]; [8]): significant attenuation of virulence; also recorded: significantly reduced bacterial load; IBCs in the bladder (UTI89 [4]; [8]): significant attenuation of virulence; also recorded: significantly less IBCs
CNC(=O)c1cc(C(=O)NC)cc(-c2ccc(OC3O[C@@H](CO)[C@@H](O)[C@H](O)[C@H]3O)c(C(F)(F)F)c2)c1 (stereo partly drawn) [Compound 1JWJ149, N1,N3-dimethyl-5-[3-(trifluoromethyl)-4-[(3R,4S,5S,6S)-3,4,5-trihydroxy-6-(hydroxymethyl)tetrahydropyran-2-yl]oxy-phenyl]benzene-1,3-dicarboxamide]	0.008 µM	0.008 µM	0.008 µM	43 nM	−6.27	76.15 C.	–
